Tests used:
Assay in all cases: relative viability (nuclei count vs DMSO), 5 days (fraction); higher = more cells survive
kb NB 142-70 + Foretinib = compound: C1CSC2=C(C(=O)N1)SC3=C2C=C(C=C3)O [kb NB 142-70] + COc1cc2c(Oc3ccc(NC(=O)C4(C(=O)Nc5ccc(F)cc5)CC4)cc3F)ccnc2cc1OCCCN1CCOCC1 [Foretinib] (partner 0.25 µM)
Method in brief: (§1)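 Relative viability equals treated-well nuclei counts divided by vehicle-well nuclei counts. Counts came from 4× images of lung cancer cell lines grown in 1536-well plates for 5 days after pin-tool dosing on the day after seeding. Dosing used one drug alone or a fixed anchor-drug dose plus five library-drug doses (not always all listed) in √10 steps, and values are medians of duplicate plates.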

[1] = compound: C1CSC2=C(C(=O)N1)SC3=C2C=C(C=C3)O [kb NB 142-70] + C[C@]1(O)C[C@@H](c2nc(-c3ccc4ccc(-c5ccccc5)nc4c3)c3c(N)nccn32)C1 [Linsitinib] (partner 1 µM)
Method in brief: as §1

[2] = compound: NCC(=O)Nc1ccc(-n2nc(C(F)(F)F)cc2-c2ccc3c(ccc4ccccc43)c2)cc1 + CS(=O)(=O)N1CCN(Cc2cc3nc(-c4cccc5[nH]ncc45)nc(N4CCOCC4)c3s2)CC1 [Pictilisib] (partner 1 µM)
Method in brief: as §1

[3] = compound: NCC(=O)Nc1ccc(-n2nc(C(F)(F)F)cc2-c2ccc3c(ccc4ccccc43)c2)cc1 + CC(=O)Nc1cccc(-n2c(=O)n(C3CC3)c(=O)c3c(Nc4ccc(I)cc4F)n(C)c(=O)c(C)c32)c1 [Trametinib] (partner 0.02 µM)
Method in brief: as §1

[4] = compound: C1CSC2=C(C(=O)N1)SC3=C2C=C(C=C3)O [kb NB 142-70] + C[C@@H](Oc1cc(-c2cnn(C3CCNCC3)c2)cnc1N)c1c(Cl)ccc(F)c1Cl [Crizotinib] (partner 1 µM)
Method in brief: as §1

| Cell Line | relative viability (kb NB 142-70 + Foretinib; first compound 0.1 µM) | relative viability (kb NB 142-70 + Foretinib; first compound 1 µM) | relative viability (kb NB 142-70 + Foretinib; first compound 3.162 µM) | relative viability ([1]; first compound 0.1 µM) | relative viability ([1]; first compound 1 µM) | relative viability ([1]; first compound 3.162 µM) | relative viability ([2]; first compound 0.02 µM) | relative viability ([2]; first compound 0.06325 µM) | relative viability ([2]; first compound 0.2 µM) | relative viability ([2]; first compound 0.6325 µM) | relative viability ([2]; first compound 2 µM) | relative viability ([3]; first compound 0.02 µM) | relative viability ([3]; first compound 0.06325 µM) | relative viability ([3]; first compound 0.2 µM) | relative viability ([3]; first compound 0.6325 µM) | relative viability ([3]; first compound 2 µM) | relative viability ([4]; first compound 0.1 µM) | relative viability ([4]; first compound 1 µM) | relative viability ([4]; first compound 3.162 µM) |
| --- | --- | --- | --- | --- | --- | --- | --- | --- | --- | --- | --- | --- | --- | --- | --- | --- | --- | --- | --- |
| NCI-H520 | 0.718 | 0.866 | 0.655 | 0.874 | 0.972 | 0.641 | 0.351 | 0.265 | 0.323 | 0.277 | 0.277 | 0.637 | 0.641 | 0.747 | 0.678 | 0.679 | 0.869 | 0.825 | 0.507 |
| NCI-H460 | 0.951 | 1.07 | 0.985 | 0.704 | 1 | 0.277 | 0.406 | 0.409 | 0.343 | 0.382 | 0.203 | 0.19 | 0.175 | 0.165 | 0.145 | 0.18 | 0.766 | 0.801 | 0.326 |
| EKVX | 0.834 | 0.903 | 0.86 | 0.969 | 1.01 | 1.04 | 0.531 | 0.493 | 0.466 | 0.45 | 0.531 | 0.408 | 0.356 | 0.428 | 0.366 | 0.369 | 0.884 | 1.04 | 1.19 |
| NCI-H358 | 0.57 | 0.521 | 0.101 | 0.654 | 0.522 | 0.146 | 0.43 | 0.309 | 0.322 | 0.383 | 0.341 | 0.127 | 0.127 | 0.133 | 0.138 | 0.15 | 0.481 | 0.493 | 0.136 |
| EPLC-272H | 0.696 | 0.725 | 0.255 | 1.07 | 1.05 | 0.599 | 0.28 | 0.378 | 0.285 | 0.344 | 0.319 | 0.269 | 0.297 | 0.305 | 0.299 | 0.303 | 0.851 | 1.03 | 0.428 |
| NCI-H2126 | 1.18 | 0.869 | 1.14 | 0.702 | 0.729 | 0.681 | 0.47 | 0.51 | 0.45 | 0.532 | 0.502 | 0.586 | 0.599 | 0.626 | 0.553 | 0.54 | 1.04 | 1.06 | 0.983 |
| LXF-289 | 0.973 | 1.01 | 0.813 | 0.914 | 0.92 | 0.916 | 0.868 | 0.583 | 0.762 | 0.753 | 0.798 | 0.716 | 0.705 | 0.67 | 0.672 | 0.68 | 0.776 | 0.796 | 0.744 |
| NCI-H2009 | 1.2 | 1.22 | 0.872 | 1.26 | 1.26 | 0.955 | 0.734 | 0.906 | 0.819 | 0.86 | 0.967 | 0.265 | 0.35 | 0.316 | 0.275 | 0.301 | 1 | 1.12 | 0.652 |
| NCI-H2405 | 1.05 | 1.05 | 0.776 | 0.969 | 0.834 | 0.641 | 0.415 | 0.494 | 0.499 | 0.375 | 0.481 | 0.5 | 0.721 | 0.67 | 0.635 | 0.734 | 0.796 | 0.885 | 0.717 |
| NCI-H1755 | 0.928 | 0.867 | 0.944 | 1 | 0.991 | 1.06 | 0.384 | 0.487 | 0.454 | 0.435 | 0.479 | 0.782 | 0.765 | 0.737 | 0.768 | 0.71 | 0.852 | 0.923 | 0.915 |
| HCC-78 | 0.496 | 0.585 | 0.614 | 0.491 | 0.569 | 0.467 | 0.208 | 0.245 | 0.216 | 0.205 | 0.203 | 0.755 | 0.807 | 0.804 | 0.788 | 0.705 | 0.305 | 0.372 | 0.353 |
| LOU-NH91 | 0.898 | 0.889 | 0.829 | 0.911 | 0.882 | 0.612 | 0.497 | 0.622 | 0.49 | 0.476 | 0.537 | 0.847 | 0.832 | 0.812 | 0.803 | 0.795 | 0.75 | 0.732 | 0.644 |
| NCI-H3122 | 0.956 | 0.926 | 0.942 | 1.03 | 1.01 | 0.924 | 0.696 | 0.592 | 0.532 | 0.571 | 0.628 | 0.204 | 0.245 | 0.188 | 0.232 | 0.261 | 0.268 | 0.242 | 0.192 |
| HCC-827 | 1.08 | 0.981 | 0.852 | 0.921 | 0.992 | 0.902 | 1.01 | 1.15 | 1.05 | 0.79 | 0.896 | 0.572 | 0.584 | 0.58 | 0.553 | 0.521 | 0.918 | 0.947 | 0.921 |
| SK-LU-1 | 0.782 | 0.732 | 0.346 | 1.26 | 0.986 | 0.557 | 0.651 | 0.604 | 0.581 | 0.479 | 0.623 | 0.43 | 0.519 | 0.537 | 0.521 | 0.576 | 0.861 | 0.691 | 0.45 |
| NCI-H1975 | 0.92 | 0.928 | 0.566 | 0.946 | 1.11 | 0.519 | 0.273 | 0.307 | 0.292 | 0.335 | 0.307 | 0.399 | 0.39 | 0.405 | 0.32 | 0.284 | 0.899 | 0.959 | 0.842 |

Reference: the supplement of paper PMC10307832
